From ChEMBL document CHEMBL5113512, “β-Nitrostyrene derivatives as broad range potential antifungal agents targeting fungal cell wall” (2022)
Converted amounts (≈) assume the structure as drawn. The source made the active and inactive calls. The calls are words filed in the database; no cut-off is given here.

Legend:
Candida albicans [1] = experiment: Synergistic antifungal activity against Candida albicans ATCC 24433 overexpressing ADCaMDR1-GFP assessed as fractional inhibitory concentration index incubated for 48 hrs in presence of caspofungin by checker board assay; type: functional
Candida [2] = experiment: Downregulation of BMT4 gene expression in Candida cells; type: functional, cell-based
Candida [3] = experiment: Downregulation of TCP1 gene expression in Candida cells; type: functional, cell-based
Candida [4] = experiment: Downregulation of PRS5 gene expression in Candida cells; type: functional, cell-based
Candida [5] = experiment: Upregulation of ARG1 gene expression in Candida cells; type: functional, cell-based
Candida [6] = experiment: Downregulation of RLM1 gene expression in Candida cells; type: functional, cell-based
Candida albicans [7] = experiment: Synergistic antifungal activity against Candida albicans SN152 harboring CAS5 mutant assessed as fractional inhibitory concentration index incubated for 48 hrs in presence of Amphotericin B by checker board assay; type: functional
Candida albicans [8] = experiment: Synergistic antifungal activity against wild type Candida albicans SN152 assessed as Amphotericin B MIC incubated for 48 hrs by checker board assay; type: functional
Candida albicans [9] = experiment: Induction of ROS generation in Candida albicans ATCC 24433 at sub-inhibitory concentration incubated for 1 hr by DCFDA staining-based flow cytometric analysis; type: functional, organism-based
Candida parapsilosis [10] = experiment: Synergistic antifungal activity against Candida parapsilosis ATCC 90018 assessed as fractional inhibitory concentration index incubated for 48 hrs in presence of Calcoflour White by checker board assay; type: functional
Candida [11] = experiment: Upregulation of ARG4 gene expression in Candida cells; type: functional, cell-based
[Candida] auris [12] = Synergistic antifungal activity against Candida auris CBS10913 assessed as Congo red MIC incubated for 48 hrs by checker board assay; type: functional; conditions: Candidozyma auris
Candida albicans [13] = experiment: Fungicidal activity against Candida albicans ATCC 24433 assessed as reduction in fungal growth by measuring reduction in colony count at sub-MIC concentration measured after 48 hrs by time kill assay; type: functional, organism-based
Candida albicans [14] = experiment: Synergistic antifungal activity against Candida albicans ATCC 24433 assessed as inhibition of fungal growth incubated for 48 hrs in presence of Congo red by checker board assay; type: functional
Cell membrane [15] = experiment: Disruption of membrane integrity in Candida albicans ATCC 24433 assessed as cell shrinkage and lysis by measuring leakage of intracellular material measured after 6 hrs by SEM analysis; type: subcellular
Candida albicans [16] = experiment: Inhibition of drug efflux in Candida albicans ATCC 24433 overexpressing AD(1-8)u- assessed as […] in nile red efflux incubated for 30 mins by flow cytometry; type: functional
Candida [17] = experiment: Downregulation of CPH1 gene expression in Candida cells; type: functional, cell-based
Candida [18] = experiment: Downregulation of CCT6 gene expression in Candida cells; type: functional, cell-based
Candida albicans [19] = experiment: Downregulation of CAS5 gene expression in Candida albicans ATCC 24433 by qRT-PCR analysis; type: functional
Candida parapsilosis [20] = experiment: Synergistic antifungal activity against Candida parapsilosis ATCC 90018 assessed as inhibition of fungal growth incubated for 48 hrs in presence of Congo red by checker board assay; type: functional; conditions: Lodderomyces parapsilosis
Candida [21] = experiment: Downregulation of GUT1 gene expression in Candida cells; type: functional, cell-based
Candida [22] = experiment: Upregulation of HYM1 gene expression in Candida cells; type: functional, cell-based
Cell membrane [23] = experiment: Disruption of membrane integrity in Candida albicans ATCC 24433 assessed as cell surface perturbations measured after 3 hrs by SEM analysis
Candida albicans [24] = experiment: Synergistic antifungal activity against Candida albicans ATCC 24433 assessed as Calcoflour White MIC incubated for 48 hrs by checker board assay; type: functional
Candida albicans [25] = experiment: Inhibition of drug efflux in Candida albicans ATCC 24433 overexpressing ADCDR1-GFP assessed as reduction in rhodamine 6g efflux preincubated for 45 mins followed by substrate addition and measured after 30 mins; type: functional; conditions: dose 0.1-100 µg/ml, time 75.0 min, DDE = dose-dependent effect
Candida parapsilosis [26] = experiment: Synergistic antifungal activity against Candida parapsilosis ATCC 90018 assessed as inhibition of fungal growth incubated for 48 hrs in presence of Calcoflour White by checker board assay; type: functional; conditions: Lodderomyces parapsilosis
Candida [27] = experiment: Upregulation of LSC2 gene expression in Candida cells; type: functional, cell-based
[Candida] auris [28] = Synergistic antifungal activity against Candida auris CBS10913 assessed as fractional inhibitory concentration index incubated for 48 hrs in presence of Congo red by checker board assay; type: functional, Candidozyma auris
Candida parapsilosis [29] = experiment: Synergistic antifungal activity against Candida parapsilosis ATCC 90018 assessed as fractional inhibitory concentration index incubated for 48 hrs in presence of Congo red by checker board assay; type: functional
Candida albicans [30] = experiment: Downregulation of ZCF19 gene expression in Candida albicans ATCC 24433 by qRT-PCR analysis; type: functional
Candida albicans [31] = experiment: Upregulation of CaPHO15 gene expression in Candida albicans ATCC 24433 assessed as increase in glycerol content at sub-inhibitory concentration incubated for 2 hrs; type: functional
Candida [32] = experiment: Downregulation of SSZ1 gene expression in Candida cells; type: functional, cell-based
[Candida] auris [33] = Synergistic antifungal activity against Candida auris CBS10913 assessed as fractional inhibitory concentration index incubated for 48 hrs in presence of Calcoflour White by checker board assay; type: functional, Candidozyma auris
Candida albicans [34] = experiment: Synergistic antifungal activity against Candida albicans ATCC 24433 assessed as SDS MIC incubated for 48 hrs by checker board assay; type: functional
Candida [35] = experiment: Downregulation of CAS5 gene expression in Candida cells; type: functional, cell-based
Candida albicans [36] = experiment: Synergistic antifungal activity against Candida albicans ATCC 24433 assessed as inhibition of fungal growth incubated for 48 hrs in presence of Calcoflour White by checker board assay; type: functional
Candida parapsilosis [37] = experiment: Synergistic antifungal activity against Candida parapsilosis ATCC 90018 assessed as Calcoflour White MIC incubated for 48 hrs by checker board assay; type: functional; conditions: Lodderomyces parapsilosis
[Candida] auris [38] = Synergistic antifungal activity against Candida auris CBS10913 assessed as fractional inhibitory concentration index incubated for 48 hrs in presence of SDS by checker board assay; type: functional, Candidozyma auris
Candida [39] = experiment: Upregulation of GAL4 gene expression in Candida cells; type: functional, cell-based
Candida albicans [40] = experiment: Synergistic antifungal activity against Candida albicans ATCC 24433 overexpressing ADPDR5-G assessed as fractional inhibitory concentration index incubated for 48 hrs in presence of caspofungin by checker board assay; type: functional
Candida albicans [41] = experiment: Induction of ROS generation in Candida albicans ATCC 24433 assessed as increase in relative fluorescence unit at sub-inhibitory concentration incubated for 1 hr by DCFDA staining-based flow cytometric analysis; type: functional, organism-based
[Candida] auris [42] = Induction of ROS generation in Candida auris CBS10913 at sub-inhibitory concentration incubated for 1 hr by DCFDA staining-based flow cytometric analysis; type: functional, organism-based; conditions: Candidozyma auris
Candida parapsilosis [43] = experiment: Synergistic antifungal activity against Candida parapsilosis ATCC 90018 assessed as SDS MIC incubated for 48 hrs by checker board assay; type: functional; conditions: Lodderomyces parapsilosis
Candida albicans [44] = experiment: Synergistic antifungal activity against Candida albicans SN152 harboring CAS5 mutant assessed as Caspofungin MIC incubated for 48 hrs by checker board assay; type: functional
Candida albicans [45] = experiment: Upregulation of IFF8 gene expression in Candida albicans ATCC 24433 by qRT-PCR analysis; type: functional
Candida tropicalis = experiment: Antifungal activity against Candida tropicalis ATCC 750 assessed as inhibition of fungal growth by broth microdilution method; type: functional
[Candida] auris [46] = Antifungal activity against wild type Candida auris 102 assessed as inhibition of fungal growth by broth microdilution method; type: functional; conditions: Candidozyma auris

With `O=[N+]([O-])/C=C/c1ccc(O)cc1` the “fractional inhibitory concentration index (FICI)” value (Candida albicans [1]) was under 0.5, the Activity (Candida [2]) was “Active” and the Activity (Candida [3]) was “Active”. The Activity (Candida [4]) was “Active”, the Activity (Candida [5]) was “Active” and the Activity (Candida [6]) was “Active”. For the same molecule, the “fractional inhibitory concentration index (FICI)” value (Candida albicans [7]) was 0.515, the MIC (Candida albicans [8]) was 0.25 µg/mL and the Activity (Candida albicans [9]) was “Active”. For the same molecule, the “fractional inhibitory concentration index (FICI)” value (Candida parapsilosis [10]) was 0.5, the Activity (Candida [11]) was “Active” and the MIC ([Candida] auris [12]) was 100 µg/mL. For the same molecule, the Activity (Candida albicans [13]) was “Active”, the MIC (Candida albicans [14]) was 0.5 µg/mL and the Activity (Cell membrane [15]) was “Active”. The inhibition (Candida albicans [16]) was “Active”, the Activity (Candida [17]) was “Active” and the Activity (Candida [18]) was “Active”. The Activity (Candida albicans [19]) was “Active”, the MIC (Candida parapsilosis [20]) was 0.0312 µg/mL and the Activity (Candida [21]) was “Active”. The Activity (Candida [22]) was “Active”, the Activity (Cell membrane [23]) was “Active” and the MIC (Candida albicans [24]) was 12.5 µg/mL. The inhibition (Candida albicans [25]) was “Dde”, the MIC (Candida parapsilosis [26]) was 0.0078 µg/mL and the Activity (Candida [27]) was “Active”. For the same molecule, the “fractional inhibitory concentration index (FICI)” value ([Candida] auris [28]) was 0.3125, the “fractional inhibitory concentration index (FICI)” value (Candida parapsilosis [29]) was 0.25 and the Activity (Candida albicans [30]) was “Active”. The Activity (Candida albicans [31]) was “Active”, the Activity (Candida [32]) was “Active” and the “fractional inhibitory concentration index (FICI)” value ([Candida] auris [33]) was 0.625. For the same molecule, the MIC (Candida albicans [34]) was 12.5 µg/mL, the Activity (Candida [35]) was “Active” and the MIC (Candida albicans [36]) was 0.0078 µg/mL. The MIC (Candida parapsilosis [37]) was 25 µg/mL, the “fractional inhibitory concentration index (FICI)” value ([Candida] auris [38]) was 0.5 and the Activity (Candida [39]) was “Active”. For the same molecule, the “fractional inhibitory concentration index (FICI)” value (Candida albicans [40]) was under 0.5, the Activity (Candida albicans [41]) was “Active” and the Activity ([Candida] auris [42]) was “Active”. The MIC (Candida parapsilosis [43]) was 25 µg/mL, the MIC (Candida albicans [44]) was 0.0078 µg/mL and the Activity (Candida albicans [45]) was “Active”. The MIC80 (Candida tropicalis) was 4 µg/mL (≈ 24.2 µM) and the MIC80 ([Candida] auris [46]) was 2 µg/mL (≈ 12.1 µM).
